Laboratory results from patent US12077503B2, “Substituted cyclic amides and their use as herbicides” (FMC CORPORATION, priority 2015, dated 2024).

Legend:
Format in all cases: in vivo
[1] = test system: barnyardgrass (Echinochloa crus-galli); assay: Test A preemergence; conditions: Echinochloa crus-galli, pre-emergence, 240 h, Preemergence
Procedure, shortened: (§1)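 Ratings of 0 (no effect) to 100 (complete control) come from visual comparison with untreated controls roughly 10 d after treatment. Test chemicals, formulated in a non-phytotoxic solvent mixture with surfactant, were applied either as a preemergence directed soil spray on seeded soil or postemergence to one- to two-leaf plants 2 to 10 cm tall.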

[2] = test system: Kochia (Kochia scoparia); assay: Test A preemergence; conditions: Bassia scoparia, pre-emergence, 240 h, Preemergence
Procedure, shortened: as §1

[3] = test system: giant foxtail (Setaria faberii); assay: Test A preemergence; conditions: Setaria faberi, pre-emergence, 240 h, Preemergence
Procedure, shortened: as §1

[4] = test system: ryegrass, Italian (Italian ryegrass, Lolium multiflorum); assay: Test A preemergence; conditions: Lolium multiflorum, pre-emergence, 240 h, Preemergence
Procedure, shortened: as §1

[5] = test system: pigweed (Amaranthus retroflexus); assay: Test A preemergence; conditions: Amaranthus retroflexus, pre-emergence, 240 h, Preemergence
[6] = test system: ragweed (common ragweed, Ambrosia elatior); assay: Test A preemergence; conditions: Ambrosia artemisiifolia, pre-emergence, 240 h, Preemergence
Procedure, shortened: as §1

[7] = test system: corn (Zea mays); assay: Test A postemergence; conditions: Zea mays, post-emergence, 240 h, Postemergence, read-out: Corn plant response rating (0 to 100 scale)
Procedure, shortened: as §1

[8] = test system: barnyardgrass (Echinochloa crus-galli); assay: Test A postemergence; conditions: Echinochloa crus-galli, post-emergence, 240 h, Postemergence
Procedure, shortened: as §1

[9] = test system: Kochia (Kochia scoparia); assay: Test A postemergence; conditions: Bassia scoparia, post-emergence, 240 h, Postemergence, read-out: Kochia plant response rating (0 to 100 scale)
Procedure, shortened: as §1

[10] = test system: giant foxtail (Setaria faberii); assay: Test A postemergence; conditions: Setaria faberi, post-emergence, 240 h, Postemergence, read-out: Foxtail, Giant plant response rating (0 to 100 scale)
Procedure, shortened: as §1

[11] = test system: blackgrass (Alopecurus myosuroides); assay: Test A postemergence; conditions: Alopecurus myosuroides, post-emergence, 240 h, Postemergence, read-out: Blackgrass plant response rating (0 to 100 scale)
Procedure, shortened: as §1

[12] = test system: ryegrass, Italian (Italian ryegrass, Lolium multiflorum); assay: Test A postemergence; conditions: Lolium multiflorum, post-emergence, 240 h, Postemergence, read-out: Ryegrass, Italian plant response rating (0 to 100 scale)
Procedure, shortened: as §1

[13] = test system: Galium (catchweed bedstraw, Galium aparine); assay: Test A postemergence; conditions: Galium, post-emergence, 240 h, Postemergence, read-out: Galium plant response rating (0 to 100 scale)
Procedure, shortened: as §1

[14] = test system: pigweed (Amaranthus retroflexus); assay: Test A postemergence; conditions: Amaranthus retroflexus, post-emergence, 240 h, Postemergence, read-out: Pigweed plant response rating (0 to 100 scale)
Procedure, shortened: as §1

[15] = test system: wheat (Triticum aestivum); assay: Test A postemergence; conditions: Triticum aestivum, post-emergence, 240 h, Postemergence, read-out: Wheat plant response rating (0 to 100 scale)
Procedure, shortened: as §1

[16] = test system: ragweed (common ragweed, Ambrosia elatior); assay: Test A postemergence; conditions: Ambrosia artemisiifolia, post-emergence, 240 h, Postemergence, read-out: Ragweed plant response rating (0 to 100 scale)
Procedure, shortened: as §1

[17] = test system: ducksalad (Heteranthera limosa); assay: Test B flooded paddy test; conditions: Heteranthera limosa, 360 h, Flood, 250 g ai/ha; visually evaluated after 13 to 15 d; read-out: Plant response rating, Ducksalad (0 to 100 scale where 0 is no effect and 100 is complete control)
Procedure, shortened: (§2)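 Compound goes directly into floodwater once pots are flooded 3 cm above soil, targeting plants at two leaves; the water depth is then held for the test duration. Plants sit 13–15 d in a greenhouse and are rated visually, 100 denoting complete control.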

[18] = test system: sedge, umbrella (small-flower umbrella sedge, Cyperus difformis); assay: Test B flooded paddy test; conditions: Cyperus difformis, 360 h, Flood, 250 g ai/ha; visually evaluated after 13 to 15 d; read-out: Plant response rating, Sedge, Umbrella (0 to 100 scale where 0 is no effect and 100 is complete control)
Procedure, shortened: as §2

[19] = test system: barnyardgrass (Echinochloa crus-galli); assay: Test B flooded paddy test; conditions: Echinochloa crus-galli, 360 h, Flood, 250 g ai/ha; visually evaluated after 13 to 15 d; read-out: Plant response rating, Barnyardgrass (0 to 100 scale where 0 is no effect and 100 is complete control)
Procedure, shortened: as §2

[20] = test system: rice (Oryra sativa); assay: Test B flooded paddy test; conditions: Oryza sativa, 360 h, Flood, 250 g ai/ha; visually evaluated after 13 to 15 d; read-out: Plant response rating, Rice (0 to 100 scale where 0 is no effect and 100 is complete control)
Procedure, shortened: as §2

[21] = 125 g ai/ha, visual rating about 10 d after treatment
[22] = 31 g ai/ha, 0 is no effect, 100 is complete control

In the case of `O=C1NC[C@H](c2cc(Br)cc(Br)c2)[C@H]1C(=O)Nc1cccc(F)c1F` [Compound 1366], the pest or weed control at 31 g/ha ([1]; 31 g ai/ha, 0 to 100 scale where 0 is no effect and 100 is complete control, read-out: Barnyardgrass plant response rating) is reported as 60%, the pest or weed control at 125 g/ha ([1]; 125 g ai/ha, 0 to 100 scale (0 no effect, 100 complete control), read-out: Plant response rating, Barnyardgrass) is reported as 70% and the pest or weed control at 31 g/ha ([2]; 31 g ai/ha, 0 to 100 scale where 0 is no effect and 100 is complete control, read-out: Kochia plant response rating) is reported as 0%. It also gave a pest or weed control at 125 g/ha ([2]; 125 g ai/ha, 0 to 100 scale (0 no effect, 100 complete control), read-out: Plant response rating, Kochia) of 0%, a pest or weed control at 31 g/ha ([3]; 31 g ai/ha, 0 to 100 scale where 0 is no effect and 100 is complete control, read-out: Foxtail, Giant plant response rating) of 50% and a pest or weed control at 125 g/ha ([3]; 125 g ai/ha, 0 to 100 scale (0 no effect, 100 complete control), read-out: Plant response rating, Foxtail, Giant) of 90%. The pest or weed control at 31 g/ha ([4]; 31 g ai/ha, 0 to 100 scale where 0 is no effect and 100 is complete control, read-out: Ryegrass, Italian plant response rating) was 0%, the pest or weed control at 125 g/ha ([4]; 125 g ai/ha, 0 to 100 scale (0 no effect, 100 complete control), read-out: Plant response rating, Ryegrass, Italian) was 10% and the pest or weed control at 31 g/ha ([5]; 31 g ai/ha, 0 to 100 scale where 0 is no effect and 100 is complete control, read-out: Pigweed plant response rating) was 0%. The pest or weed control at 125 g/ha ([5]; 125 g ai/ha, 0 to 100 scale (0 no effect, 100 complete control), read-out: Plant response rating, Pigweed) was 0%, the pest or weed control at 31 g/ha ([6]; 31 g ai/ha, 0 to 100 scale where 0 is no effect and 100 is complete control, read-out: Ragweed plant response rating) was 0% and the pest or weed control at 125 g/ha ([6]; 125 g ai/ha, 0 to 100 scale (0 no effect, 100 complete control), read-out: Plant response rating, Ragweed) was 0%. The plant injury at 125 g/ha [7, 21] was 0%, the plant injury at 31 g/ha [7, 22] was 0% and the pest or weed control at 125 g/ha ([8]; 125 g ai/ha, visual rating about 10 d after treatment, read-out: Barnyardgrass plant response rating (0 to 100 scale, 0 no effect, 100 complete control)) was 70%. For the same compound, the pest or weed control at 31 g/ha ([8]; 31 g ai/ha, 0 is no effect, 100 is complete control, read-out: Barnyardgrass plant response rating (0 to 100 scale)) was 20%, the pest or weed control at 125 g/ha [9, 21] was 0% and the pest or weed control at 31 g/ha [9, 22] was 0%. It also gave a pest or weed control at 125 g/ha [10, 21] of 70%, a pest or weed control at 31 g/ha [10, 22] of 30% and a pest or weed control at 125 g/ha [11, 21] of 0%. The pest or weed control at 31 g/ha [11, 22] was 0%, the pest or weed control at 125 g/ha [12, 21] was 0% and the pest or weed control at 31 g/ha [12, 22] was 0%. The pest or weed control at 125 g/ha [13, 21] was 70%, the pest or weed control at 31 g/ha [13, 22] was 0% and the pest or weed control at 125 g/ha [14, 21] was 80%. For the same compound, the pest or weed control at 31 g/ha [14, 22] was 0%, the plant injury at 125 g/ha [15, 21] was 0% and the plant injury at 31 g/ha [15, 22] was 0%. It also gave a pest or weed control at 125 g/ha [16, 21] of 0%, a pest or weed control at 31 g/ha [16, 22] of 0% and a pest or weed control at 250 g/ha [17] of 80%. For the same compound, the pest or weed control at 250 g/ha [18] was 0%, the pest or weed control at 250 g/ha [19] was 40% and the pest or weed control at 250 g/ha [20] was 0%.
